Reference: patent US10828317B2, “Method of treating bacterial infections” (priority 2016, dated 2020)

How the values were obtained:
[1] = system: S. epidermidis EN0456; assay: MIC; type: cell-based, Staphylococcus epidermidis; settings: combination FdUrd+trimethoprim+uridine, Table 8
[2] = system: P. aeruginosa EN0460; assay: MIC; type: cell-based, Pseudomonas aeruginosa; settings: combination FdUrd+trimethoprim+uridine, Table 8
[3] = system: K. pneumoniae EN0245; assay: MIC, colistinR; type: cell-based; settings: combination FdUrd+trimethoprim+uridine, Table 19
[4] = system: K. pneumoniae EN0244; assay: MIC, colistinR; type: cell-based; settings: combination FdUrd+trimethoprim+uridine, Table 19
[5] = system: E. coli EN002; assay: MIC, DtoIC; type: cell-based, Escherichia coli; settings: combination FdUrd+trimethoprim+uridine, Table 8
[6] = system: S. marescens EN0454; assay: MIC; type: cell-based, Serratia marescens; settings: combination FdUrd+trimethoprim+uridine, Table 8
[7] = system: K. pneumoniae EN0144; assay: MIC, MBL (VIM-1); type: cell-based; settings: combination FdUrd+trimethoprim+uridine, Table 19
[8] = system: E. coli EN0136; assay: MIC, ESBL (CTX-M-2); type: cell-based; settings: combination FdUrd+trimethoprim+uridine, Table 19
[9] = system: K. pneumoniae EN0145; assay: MIC, KPC-2; type: cell-based; settings: combination FdUrd+trimethoprim+uridine, Table 19
[10] = system: E. coli B EN0458; assay: MIC; type: cell-based, Escherichia coli B; settings: combination FdUrd+trimethoprim+uridine, Table 8
[11] = system: P. mirabilis ST19 EN0445; assay: MIC; type: cell-based, Proteus mirabilis; settings: combination FdUrd+trimethoprim+uridine, Table 8
[12] = system: E. aerogenes EN0461; assay: MIC; type: cell-based, Enterobacter aerogenes; settings: combination FdUrd+trimethoprim+uridine, Table 8
[13] = system: P. aeruginosa EN014; assay: MIC, WT; type: cell-based, Pseudomonas aeruginosa; settings: combination FdUrd+trimethoprim+uridine, Table 8
[14] = system: A. baumannii EN016; assay: MIC, WT; type: cell-based, Acinetobacter baumannii; settings: combination FdUrd+trimethoprim+uridine, Table 8
[15] = system: S. flexneri APV00907; assay: MIC and antibiogram; type: cell-based; settings: combination FdUrd+trimethoprim+uridine, Table 22A
Description: Inhibition of Heliobacter is important in view of increasing resistance and its association to gastric cancer.

[16] = system: S. aureus EN008; assay: MIC, Gram-positive control; type: cell-based, Staphylococcus aureus; settings: combination FdUrd+trimethoprim+uridine, Table 8
[17] = system: E. coli EN0235; assay: microbe, parasite or virus in culture; type: cell-based; settings: combination FdUrd+trimethoprim+uridine, Table 19
[18] = system: K. pneumoniae EN0140; assay: MIC, AmpC (DHA-1); type: cell-based; settings: combination FdUrd+trimethoprim+uridine, Table 19
[19] = system: E. coli EN012; assay: MIC, WT; type: cell-based, Escherichia coli; settings: combination FdUrd+trimethoprim+uridine, Table 8
[20] = system: P. mirabilis EN0457; assay: MIC; type: cell-based, Proteus mirabilis; settings: combination FdUrd+trimethoprim+uridine, Table 8
[21] = system: E. coli EN003; assay: microbe, parasite or virus in culture; type: cell-based, Escherichia coli; settings: combination FdUrd+trimethoprim+uridine, Table 8
[22] = system: S. sonnei APV00908; assay: MIC and antibiogram; type: cell-based; settings: combination FdUrd+trimethoprim+uridine, Table 22A
[23] = system: E. coli EN0137; assay: MIC, ESBL (CTX-M-15); type: cell-based; settings: combination FdUrd+trimethoprim+uridine, Table 19
[24] = system: P. aeruginosa EN0422; assay: MIC; type: cell-based, Pseudomonas aeruginosa; settings: combination FdUrd+trimethoprim+uridine, Table 8
[25] = system: M. luteus EN0455; assay: MIC; type: cell-based, Micrococcus luteus; settings: combination FdUrd+trimethoprim+uridine, Table 8
[26] = system: K. pneumoniae EN006; assay: MIC, WT (EN006 = EN0006, ATCC 13883); type: cell-based, Klebsiella pneumoniae; settings: combination FdUrd+trimethoprim+uridine
[27] = system: K. pneumoniae EN0249; assay: MIC, colistinR; type: cell-based; settings: combination FdUrd+trimethoprim+uridine, Table 19
[28] = system: Citrobacter sp. EN0465; assay: MIC; type: cell-based; settings: combination FdUrd+trimethoprim+uridine, Table 8
[29] = system: P. aeruginosa EN0459; assay: MIC; type: cell-based, Pseudomonas aeruginosa; settings: combination FdUrd+trimethoprim+uridine, Table 8
[30] = system: A. pittii or A. nosocomialis EN0180; assay: MIC; type: cell-based, Acinetobacter pittii or nosocomialis; settings: combination FdUrd+trimethoprim+uridine, Table 8
[31] = system: E. coli EN001; assay: MIC, WT (EN001 = EN0001, ATCC 25922); type: cell-based, Escherichia coli; settings: combination FdUrd+trimethoprim+uridine, Table 19
[32] = system: K. pneumoniae EN0463; assay: MIC; type: cell-based, Klebsiella pneumoniae; settings: combination FdUrd+trimethoprim+uridine, Table 8
[33] = system: P. aeruginosa EN004; assay: MIC, WT (EN004 = EN0004); type: cell-based, Pseudomonas aeruginosa; settings: combination FdUrd+trimethoprim+uridine

With `O=c1[nH]c(=O)n([C@H]2C[C@H](O)[C@@H](CO)O2)cc1F` [FdUrd, Fluorodeoxyuridine] the MIC [1] was <8 ng/mL, the MIC [2] was >4 µg/mL and the MIC [3] was >4 µg/mL. The MIC [4] was >4 µg/mL, the MIC [5] was 0.032 µg/mL and the MIC [6] was >4 µg/mL. The MIC [7] was >4 µg/mL, the MIC [8] was 1 µg/mL and the MIC [9] was >4 µg/mL. For the same molecule, the MIC [10] was 0.032 µg/mL, the MIC [11] was 0.5 µg/mL and the MIC [12] was 1 µg/mL. The MIC [13] was >4 µg/mL, the MIC [14] was 4 µg/mL and the MIC [15] was >4 µg/mL. The MIC [16] was <8 ng/mL, the MIC [17] was 0.06 µg/mL and the MIC [18] was >4 µg/mL. For the same molecule, the MIC [19] was 0.032 µg/mL, the MIC [20] was 1 µg/mL and the MIC [21] was 0.016 µg/mL. The MIC [22] was >4 µg/mL, the MIC [23] was >4 µg/mL and the MIC [24] was >4 µg/mL. It also gave an MIC [25] of 2 µg/mL, an MIC ([26]; Table 8) of 0.5 µg/mL and an MIC ([26]; Table 19) of 0.5 µg/mL. For the same molecule, the MIC [27] was >4 µg/mL, the MIC [28] was >4 µg/mL and the MIC [29] was >4 µg/mL. The MIC [30] was 4 µg/mL, the MIC [31] was 0.25 µg/mL and the MIC [32] was 0.25 µg/mL. The MIC ([33]; Table 8) was >4 µg/mL and the MIC ([33]; Table 19) was >4 µg/mL.
